O=C(Nc1ccc(Oc2ccnc3c2CCN3)c(F)c1)c1c[nH]cc(-c2ccc(F)cc2)c1=O
TRAE Insomnia, any grade (300 mg QD (n=12)): 1 (8.3) n (%) | TRAE Insomnia, grade 3-4 (300 mg QD (n=12)): 0 n (%) | TRAE Leukopenia, any grade (300 mg QD (n=12)): 0 n (%) | TRAE Leukopenia, grade 3-4 (300 mg QD (n=12)): 0 n (%) | TRAE Nausea, any grade (300 mg QD (n=12)): 3 (25.0) n (%) | TRAE Nausea, grade 3-4 (300 mg QD (n=12)): 0 n (%) | TRAE Neuritis, any grade (300 mg QD (n=12)): 0 n (%) | TRAE Neuritis, grade 3-4 (300 mg QD (n=12)): 0 n (%) | TRAE Occult blood, any grade (300 mg QD (n=12)): 0 n (%) | TRAE Occult blood, grade 3-4 (300 mg QD (n=12)): 0 n (%) | TRAE Oedema peripheral, any grade (300 mg QD (n=12)): 0 n (%) | TRAE Oedema peripheral, grade 3-4 (300 mg QD (n=12)): 0 n (%) | TRAE Onycholysis, any grade (300 mg QD (n=12)): 0 n (%) | TRAE Onycholysis, grade 3-4 (300 mg QD (n=12)): 0 n (%) | TRAE Oropharyngeal pain, any grade (300 mg QD (n=12)): 0 n (%) | TRAE Oropharyngeal pain, grade 3-4 (300 mg QD (n=12)): 0 n (%) | TRAE PPE, any grade (300 mg QD (n=12)): 1 (8.3) n (%) | TRAE PPE, grade 3-4 (300 mg QD (n=12)): 0 n (%) | TRAE Paraesthesia, any grade (300 mg QD (n=12)): 0 n (%) | TRAE Paraesthesia, grade 3-4 (300 mg QD (n=12)): 0 n (%) | TRAE Proteinuria, any grade (300 mg QD (n=12)): 0 n (%) | TRAE Proteinuria, grade 3-4 (300 mg QD (n=12)): 0 n (%) | TRAE Pruritus, any grade (300 mg QD (n=12)): 0 n (%) | TRAE Pruritus, grade 3-4 (300 mg QD (n=12)): 0 n (%) | TRAE Rash maculo-papular, any grade (300 mg QD (n=12)): 1 (8.3) n (%) | TRAE Rash maculo-papular, grade 3-4 (300 mg QD (n=12)): 0 n (%) | TRAE Sinus tachycardia, any grade (300 mg QD (n=12)): 0 n (%) | TRAE Sinus tachycardia, grade 3-4 (300 mg QD (n=12)): 0 n (%) | TRAE Skin fissures, any grade (300 mg QD (n=12)): 0 n (%) | TRAE Skin fissures, grade 3-4 (300 mg QD (n=12)): 0 n (%) | TRAE Supraventricular extrasystoles, any grade (300 mg QD (n=12)): 0 n (%) | TRAE Supraventricular extrasystoles, grade 3-4 (300 mg QD (n=12)): 0 n (%) | TRAE Thrombocytopenia, any grade (300 mg QD (n=12)): 0 n (%) | TRAE Thrombocytopenia, grade 3-4 (300 mg QD (n=12)): 0 n (%) | TRAE Upper respiratory tract infection, any grade (300 mg QD (n=12)): 1 (8.3) n (%) | TRAE Upper respiratory tract infection, grade 3-4 (300 mg QD (n=12)): 0 n (%) | TRAE Urinary retention, any grade (300 mg QD (n=12)): 0 n (%) | TRAE Urinary retention, grade 3-4 (300 mg QD (n=12)): 0 n (%) | TRAE Urinary tract infection, any grade (300 mg QD (n=12)): 0 n (%) | TRAE Urinary tract infection, grade 3-4 (300 mg QD (n=12)): 0 n (%) | TRAE Ventricular arrhythmia, any grade (300 mg QD (n=12)): 1 (8.3) n (%) | TRAE Ventricular arrhythmia, grade 3-4 (300 mg QD (n=12)): 0 n (%) | TRAE Ventricular extrasystoles, any grade (300 mg QD (n=12)): 1 (8.3) n (%) | TRAE Ventricular extrasystoles, grade 3-4 (300 mg QD (n=12)): 0 n (%) | TRAE Vomiting, any grade (300 mg QD (n=12)): 0 n (%) | TRAE Vomiting, grade 3-4 (300 mg QD (n=12)): 0 n (%) | TRAE Weight loss, any grade (300 mg QD (n=12)): 0 n (%) | TRAE Weight loss, grade 3-4 (300 mg QD (n=12)): 0 n (%) | TRAE Accessory nerve disorder, any grade (400 mg BID (n=4)): 0 n (%) | TRAE Accessory nerve disorder, grade 3-4 (400 mg BID (n=4)): 0 n (%) | TRAE Activated partial thromboplastin time prolonged, any grade (400 mg BID (n=4)): 0 n (%) | TRAE Activated partial thromboplastin time prolonged, grade 3-4 (400 mg BID (n=4)): 0 n (%) | TRAE Anaemia, any grade (400 mg BID (n=4)): 0 n (%) | TRAE Anaemia, grade 3-4 (400 mg BID (n=4)): 0 n (%) | TRAE Anaesthesia oral, any grade (400 mg BID (n=4)): 0 n (%) | TRAE Anaesthesia oral, grade 3-4 (400 mg BID (n=4)): 0 n (%) | TRAE Arrhythmia, any grade (400 mg BID (n=4)): 0 n (%) | TRAE Arrhythmia, grade 3-4 (400 mg BID (n=4)): 0 n (%) | TRAE Arthralgia, any grade (400 mg BID (n=4)): 0 n (%) | TRAE Arthralgia, grade 3-4 (400 mg BID (n=4)): 0 n (%) | TRAE Asthenia, any grade (400 mg BID (n=4)): 0 n (%) | TRAE Asthenia, grade 3-4 (400 mg BID (n=4)): 0 n (%) | TRAE Blister, any grade (400 mg BID (n=4)): 0 n (%) | TRAE Blister, grade 3-4 (400 mg BID (n=4)): 0 n (%) | TRAE Chest discomfort, any grade (400 mg BID (n=4)): 0 n (%) | TRAE Chest discomfort, grade 3-4 (400 mg BID (n=4)): 0 n (%) | TRAE Chronic kidney disease, any grade (400 mg BID (n=4)): 0 n (%) | TRAE Chronic kidney disease, grade 3-4 (400 mg BID (n=4)): 0 n (%) | TRAE Constipation, any grade (400 mg BID (n=4)): 0 n (%) | TRAE Constipation, grade 3-4 (400 mg BID (n=4)): 0 n (%) | TRAE Cough, any grade (400 mg BID (n=4)): 0 n (%) | TRAE Cough, grade 3-4 (400 mg BID (n=4)): 0 n (%) | TRAE Decreased Ccr, any grade (400 mg BID (n=4)): 0 n (%) | TRAE Decreased Ccr, grade 3-4 (400 mg BID (n=4)): 0 n (%) | TRAE Decreased appetite, any grade (400 mg BID (n=4)): 0 n (%) | TRAE Decreased appetite, grade 3-4 (400 mg BID (n=4)): 0 n (%) | TRAE Diarrhoea, any grade (400 mg BID (n=4)): 0 n (%) | TRAE Diarrhoea, grade 3-4 (400 mg BID (n=4)): 0 n (%) | TRAE Dizziness, any grade (400 mg BID (n=4)): 0 n (%) | TRAE Dizziness, grade 3-4 (400 mg BID (n=4)): 0 n (%) | TRAE Dry mouth, any grade (400 mg BID (n=4)): 0 n (%) | TRAE Dry mouth, grade 3-4 (400 mg BID (n=4)): 0 n (%) | TRAE Dysgeusia, any grade (400 mg BID (n=4)): 0 n (%) | TRAE Dysgeusia, grade 3-4 (400 mg BID (n=4)): 0 n (%)

Source: article PMC10088252
